# Laboratory results published in patent US20200390100A1, “SUBSTITUTED N-HETEROCYCLYL- AND N-HETEROARYL-TETRAHYDROPYRIMIDINONES AND THE SALTS THEREOF, AND THE USE OF SAME AS HERBICIDAL ACTIVE SUBSTANCES” (Bayer Aktiengesellschaft, priority 2017, published 2020).
# Read-outs that look alike come from different tables or passages of the source.
# How the values were obtained:
# Poa annua [1] = assay: Herbicidal pre-emergence action (Part 2), 1280 g/ha; format: in vivo; settings: application rate 1280 g/ha, scored visually after about 3 weeks, Table D3
# Text: (§1) Seeds of mono- and dicotyledonous weed plants were placed in plastic pots in sandy loam soil (doubly sown with in each case one species of mono- or dicotyledonous weed plants per pot) and covered with soil. The compounds of the invention, formulated in the form of wettable powders (WP) or as emulsion concentrates (EC), were then applied onto the surface of the covering soil as aqueous suspension or emulsion with addition of 0.5% additive at a water application rate of 600 liters per hectare (converted). After the treatment, the pots were placed in a greenhouse and kept under good growth conditions for the test plants. After about 3 weeks, the effect of the preparations was scored visually in comparison with untreated controls as percentages. For example, 100% activity=the plants have died, 0% activity=like control plants. Tables D1 to D8 below show the effects of selected compounds of the general formula (I) according to Tables 1.1 to 1.150 on various harmful plants and at an application rate corresponding to 1280 g/ha, which were obtained by the experimental procedure mentioned above.
# Abutilon theophrasti [2] = assay: as above; format: in vivo; settings: application rate 1280 g/ha, scored visually after about 3 weeks, Table D5
# Text: as §1
# Matricaria inodora [3] = assay: as above; format: in vivo; settings: application rate 1280 g/ha, scored visually after about 3 weeks, Table D7
# Text: as §1
# Amaranthus retroflexus [4] = assay: Herbicidal post-emergence action (Part 2), 1280 g/ha; format: in vivo; settings: application rate 1280 g/ha, rated visually after about 3 weeks, Table C5
# Procedure: (§2) Seeds of mono- and dicotyledonous weed plants were placed in plastic pots in sandy loam soil (doubly sown with in each case one species of mono- or dicotyledonous weed plants per pot), covered with soil and cultivated in a greenhouse under controlled growth conditions. 2 to 3 weeks after sowing, the test plants were treated at the one-leaf stage. The compounds of the invention, formulated in the form of wettable powders (WP) or as emulsion concentrates (EC), were applied onto the green parts of the plants as aqueous suspension or emulsion with addition of 0.5% additive at a water application rate of 600 liters per hectare (converted). After the test plants had been kept in the greenhouse under optimum growth conditions for about 3 weeks, the activity of the preparations was rated visually in comparison to untreated controls. For example, 100% activity=the plants have died, 0% activity=like control plants. Tables C1 to C7 below show the effects of selected compounds of the general formula (I) according to Tables 1.1 to 1.150 on various harmful plants and at an application rate corresponding to 1280 g/ha, which were obtained by the experimental procedure mentioned above.
# Poa annua [5] = assay: as above; format: in vivo; settings: application rate 1280 g/ha, rated visually after about 3 weeks, Table C2
# Procedure: as §2
# photosystem II (PS II) = target: T1, photosystem II (PS II) (Spinacia oleracea, UniProt P69560); assay: Measurement of PS II activity in thylakoid membranes (DCPIP reduction); format: biochemical, spinach; settings: read-out: Effect
# T1 construct: the chloroplasts were osmotically ruptured and the thylakoid membranes were then obtained by centrifugation; from tissue; host or cells: fresh spinach leaves; thylakoid membrane preparation from isolated chloroplasts
# Procedure: Cooled fresh spinach leaves were comminuted and homogenized in 50 mM phosphate buffer, pH 6.8. 10 mM KCl, 0.34 M sucrose (sucrose buffer) (blender, 1 g of plant material/ml). The homogenate was subsequently filtered through 4 layers of Miracloth and the chloroplasts were isolated by centrifugation, i.e. 10 min of centrifugation at 4400×g (4° C.). The sediment was suspended in 25 ml of sucrose buffer and re-centrifuged for 10 min at 4400×g (4° C.). The sediment was then suspended in 40 ml of 50 mM phosphate buffer, pH 6.8, 10 mM KCl, without sucrose. In this step, the chloroplasts were osmotically ruptured and the thylakoid membranes were then obtained by centrifugation (10 min, 4400×g, 4° C.). The membrane sediment was finally suspended in about 20 ml of 50 mM phosphate buffer, pH 6.8, 10 mM KCl. Following protein determination and activity determination, the membrane suspension was divided into aliquots and frozen in liquid nitrogen. The aliquots were stored at −80° C. Under these conditions, the photosystem II preparation was storage stable for at least three months. The activity determination of photosystem II (PS II) was then carried out using the following test principle: The electron transfer from PS II to an artificial electron acceptor, 2,6-dichlorophenolindophenol (DCPIP), was measured with exposure to light. The concentration of the blue oxidized form of DCPIP was determined spectrophotometrically at wavelength λ=595 nm. […] The activity determination is carried out in microtiter plates (96 cavities) in a reaction volume of 200 μl. Here, 155 μl of dilute membrane suspension were initially charged in 50 mM of phosphate buffer, pH 6.8, 10 mM KCl. Depending on the activity of the PS II preparation, the dilution was adjusted such that the measurement of the decrease in absorption (λ=595 nm) was linear for at least 10 min. In each case 5 μl solutions of the test compounds of a concentration of 100 μM in DMSO were added to the enzyme suspension; controls contained 5 μl of DMSO; the final concentration of DMSO in the reaction batch was thus 2.5% (v/v); this concentration had no adverse effect on the enzymatic activity. On each microtiter plate, a known PS II inhibitor, for example metribuzin, was used as standard, which allowed the quality of the PS II test to be assessed. The reaction was started by addition of 40 μl DCPIP solution (600 μM in distilled water); the final concentration of DCPIP was 120 μM. Measurement of absorption is carried out over a period of 10 min at 22° C. and with exposure to light. Using metribuzin as comparative substance, the results for the efficacy of the compounds of the general formula (I) at 100 μM are stated in the table below using the following classification: ++++(inhibition≥90%), +++(90%>inhibition≥70%), ++(70%>inhibition≥50%), +(50%>inhibition≥30%).
# Digitaria sanguinalis = assay: Pre-emergence herbicidal action, greenhouse, 320 g/ha; format: in vivo; settings: application rate 320 g/ha, Table B9
# Text: (§3) Seeds of monocotyledonous and dicotyledonous weed plants and crop plants were placed in plastic or organic planting pots and covered with soil. The compounds of the invention, formulated in the form of wettable powders (WP) or as emulsion concentrates (EC), were then applied to the surface of the covering soil as aqueous suspension or emulsion with addition of 0.5% additive at a water application rate equivalent to […]. After the treatment, the pots were placed in a greenhouse and kept under good growth conditions for the test plants. After about 3 weeks, the effect of the preparations is scored visually in comparison with untreated controls as percentages. For example, 100% activity=the plants have died, 0% activity=like control plants. Tables B1 to B14 below show the effects of selected compounds of the general formula (I) according to Tables I.1 to I.150 on various harmful plants and at an application rate corresponding to 320 g/ha, which were obtained by the experimental procedure mentioned above.
# Stellaria media [6] = assay: as above; format: in vivo; settings: application rate 320 g/ha, scored visually after about 3 weeks vs untreated controls
# Text: as §3
# Alopecurus myosuroides = assay: as above; format: in vivo; settings: application rate 320 g/ha, scored visually after about 3 weeks vs untreated controls
# Text: as §3
# Viola tricolor = assay: as above; format: in vivo; settings: application rate 320 g/ha, Table B8
# Text: as §3
# Amaranthus retroflexus [7] = assay: as above; format: in vivo; settings: application rate 320 g/ha, scored visually after about 3 weeks vs untreated controls
# Text: as §3
# Setaria viridis [8] = assay: as above; format: in vivo; settings: application rate 320 g/ha, Table B11
# Text: as §3
# Avena fatua = assay: as above; format: in vivo; settings: application rate 320 g/ha, scored visually after about 3 weeks vs untreated controls
# Text: as §3
# Hordeum murinum = assay: as above; format: in vivo; settings: application rate 320 g/ha, Table B14
# Text: as §3
# Abutilon theophrasti [9] = assay: as above; format: in vivo; settings: application rate 320 g/ha, scored visually after about 3 weeks vs untreated controls
# Text: as §3
# Matricaria inodora [10] = assay: as above; format: in vivo; settings: application rate 320 g/ha, scored visually after about 3 weeks vs untreated controls
# Text: as §3
# Polygonum convolvulus [11] = assay: as above; format: in vivo; settings: application rate 320 g/ha, scored visually after about 3 weeks vs untreated controls
# Text: as §3
# Pharbitis purpurea [12] = assay: as above; format: in vivo; settings: application rate 320 g/ha, Table B12
# Text: as §3
# Stellaria media [13] = assay: Post-emergence herbicidal action, greenhouse, 320 g/ha; format: in vivo; settings: application rate 320 g/ha, rated visually after about 3 weeks vs untreated controls
# Procedure: (§4) Seeds of monocotyledonous and dicotyledonous weeds and crop plants were placed in sandy loam in plastic or wood-fiber pots, covered with soil and cultivated in a greenhouse under controlled growth conditions. 2 to 3 weeks after sowing, the test plants were treated at the one-leaf stage. The compounds of the invention, formulated in the form of wettable powders (WP) or as emulsion concentrates (EC), were then sprayed onto the green parts of the plants as aqueous suspension or emulsion with addition of 0.5% additive at a water application rate of […] (converted). After the test plants had been kept in the greenhouse under optimum growth conditions for about 3 weeks, the activity of the preparations was rated visually in comparison to untreated controls. For example, 100% activity=the plants have died, 0% activity=like control plants. Tables A1 to A14 below show the effects of selected compounds of the general formula (I) according to Tables 1.1 to 1.150 on various harmful plants and at an application rate corresponding to 320 g/ha, which were obtained by the experimental procedure mentioned above.
# Amaranthus retroflexus [14] = assay: as above; format: in vivo; settings: application rate 320 g/ha, rated visually after about 3 weeks vs untreated controls
# Procedure: as §4
# Setaria viridis [15] = assay: as above; format: in vivo; settings: application rate 320 g/ha, rated visually after about 3 weeks vs untreated controls
# Procedure: as §4
# Abutilon theophrasti [16] = assay: as above; format: in vivo; settings: application rate 320 g/ha, rated visually after about 3 weeks vs untreated controls
# Procedure: as §4
# Matricaria inodora [17] = assay: as above; format: in vivo; settings: application rate 320 g/ha, rated visually after about 3 weeks vs untreated controls
# Procedure: as §4
# Polygonum convolvulus [18] = assay: as above; format: in vivo; settings: application rate 320 g/ha, rated visually after about 3 weeks vs untreated controls
# Procedure: as §4
# Pharbitis purpurea [19] = assay: as above; format: in vivo; settings: application rate 320 g/ha, rated visually after about 3 weeks vs untreated controls
# Procedure: as §4
compound,measurement,setting,value
"CN1CC(C)(C)C(O)N(c2cc(C(C)(C)C)on2)C1=O (centres unmarked) [I.61-162, 1-(5-tert-Butyl-1,2-oxazol-3-yl)-6-hydroxy-3,5,5-trimethyltetrahydropyrimidin-2(1H)-one]",Poa Annua,Poa annua [1],100%
same,Abutilon theophrasti,Abutilon theophrasti [2],100%
same,Matricaria inodora,Matricaria inodora [3],90%
same,Amaranthus retroflexus,Amaranthus retroflexus [4],100%
same,Poa Annua,Poa annua [5],90%
same,inhibition at 100 µM,"photosystem II (PS II); PS II activity in spinach thylakoid membranes, Table E1",70 to 90%
CC(=O)OC1CC2CCCN2C(=O)N1c1cc(C(C)(C)C)on1 (centres unmarked) [I.122-162],Digitaria sanguinalis (efficacy in %),Digitaria sanguinalis,100%
same,Stellaria media (efficacy in %),Stellaria media [6],100%
same,Alopecurus myosuroides (efficacy in %),Alopecurus myosuroides,90%
same,Viola tricolor (efficacy in %),Viola tricolor,100%
same,Amaranthus retroflexus (efficacy in %),Amaranthus retroflexus [7],90%
same,Setaria viridis (efficacy in %),Setaria viridis [8],100%
same,Avena fatua (efficacy in %),Avena fatua,80%
same,Hordeum murinum (efficacy in %),Hordeum murinum,100%
same,Abutilon theophrasti (efficacy in %),Abutilon theophrasti [9],100%
same,Matricaria inodora (efficacy in %),Matricaria inodora [10],100%
same,Polygonum convolvulus (efficacy in %),Polygonum convolvulus [11],100%
same,Pharbitis purpurea (efficacy in %),Pharbitis purpurea [12],100%
same,Stellaria media (efficacy in %),Stellaria media [13],80%
same,Amaranthus retroflexus (efficacy in %),Amaranthus retroflexus [14],90%
same,Setaria viridis (efficacy in %),Setaria viridis [15],80%
same,Abutilon theophrasti (efficacy in %),Abutilon theophrasti [16],100%
same,Matricaria inodora (efficacy in %),Matricaria inodora [17],90%
same,Polygonum convolvulus (efficacy in %),Polygonum convolvulus [18],90%
same,Pharbitis purpurea (efficacy in %),Pharbitis purpurea [19],80%
"CSc1nnc(C(C)(C)C)c(=O)n1N [Metribuzin, metribuzin, reference compound]",inhibition at 100 µM,photosystem II (PS II),> 90%
